Results: PubChem BioAssay (NCI)
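At the GI50, growth is halved. Definition used: TGI = concentration required for complete inhibition of growth.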

Columns and labels:
Assay in all cases: NCI tumour cell line growth inhibition, 384-well format
[1] = tested on: A498 renal
[2] = tested on: SNB-19 CNS
[3] = tested on: SK-MEL-2 melanoma
[4] = tested on: K-562 leukemia
[5] = tested on: BT-549 breast
[6] = tested on: TK-10 renal
[7] = tested on: OVCAR-4 ovarian
[8] = tested on: ACHN renal
[9] = tested on: SK-MEL-5 melanoma
[10] = tested on: T-47D breast
[11] = tested on: DU-145 prostate
[12] = tested on: UACC-62 melanoma
[13] = tested on: COLO 205 colon
[14] = tested on: OVCAR-8 ovarian
[15] = tested on: MCF7 breast
[16] = tested on: MDA-MB-435 melanoma
[17] = tested on: NCI-H522 lung
[18] = tested on: NCI-H23 lung
[19] = tested on: RPMI-8226 leukemia
[20] = tested on: SF-295 CNS
[21] = tested on: MDA-MB-468 breast
[22] = tested on: MDA-MB-231 breast
[23] = tested on: SK-MEL-28 melanoma
[24] = tested on: HOP-62 NSCLC
[25] = tested on: OVCAR-3 ovarian
[26] = tested on: SF-268 CNS
[27] = tested on: CCRF-CEM leukemia
[28] = tested on: M14 melanoma
[29] = tested on: SR leukemia
[30] = tested on: HCT-15 colon
[31] = tested on: UO-31 renal
[32] = tested on: IGROV1 ovarian
[33] = tested on: SK-OV-3 ovarian
[34] = tested on: HCC-2998 colon
[35] = tested on: HT29 colon
[36] = tested on: HCT-116 colon
[37] = tested on: A549 NSCLC
[38] = tested on: MOLT-4 leukemia
[39] = tested on: SW-620 colon
[40] = tested on: SN12C renal
[41] = tested on: RXF 393 renal
[42] = tested on: CAKI-1 renal
[43] = tested on: MALME-3M melanoma
[44] = tested on: UACC-257 melanoma
[45] = tested on: KM12 colon
[46] = tested on: HL-60(TB) leukemia
[47] = tested on: OVCAR-5 ovarian
[48] = tested on: NCI/ADR-RES ovarian
[49] = tested on: SF-539 CNS
[50] = tested on: 786-0 renal
[51] = tested on: PC-3 prostate
[52] = tested on: NCI-H226 lung
[53] = tested on: LOX IMVI melanoma
[54] = tested on: U251 glioblastoma
[55] = tested on: NCI-H460 NSCLC
[56] = tested on: HOP-92 NSCLC
[57] = tested on: NCI-H322M lung

COc1cccc2c1C(=N)c1c(O)c3c(c(O)c1C2=O)C[C@@](O)(C(C)=O)C[C@@H]3O[C@H]1C[C@H](N)[C@H](O)[C@H](C)O1
GI50 [1]: 91.9 nM | TGI [1]: 1070 nM | GI50 [2]: 63.3 nM | TGI [2]: 376 nM | GI50 [3]: 184 nM | TGI [3]: 345 nM | GI50 [4]: 90.4 nM | TGI [4]: 452 nM | GI50 [5]: 116 nM | TGI [5]: 335 nM | GI50 [6]: 128 nM | TGI [6]: 403 nM | GI50 [7]: 387 nM | TGI [7]: 1370 nM | GI50 [8]: 120 nM | TGI [8]: 567 nM | GI50 [9]: 97.3 nM | TGI [9]: 437 nM | GI50 [10]: 61.1 nM | TGI [10]: 451 nM | GI50 [11]: 108 nM | TGI [11]: 399 nM | GI50 [12]: 71.6 nM | TGI [12]: 466 nM | GI50 [13]: 44.8 nM | TGI [13]: 231 nM | GI50 [14]: 42.9 nM | TGI [14]: 745 nM | GI50 [15]: 61.2 nM | TGI [15]: 1360 nM | GI50 [16]: 166 nM | TGI [16]: 1090 nM | GI50 [17]: 55.3 nM | TGI [17]: 206 nM | GI50 [18]: 47.9 nM | TGI [18]: 200 nM | GI50 [19]: < 10 nM | TGI [19]: 22.3 nM | GI50 [20]: 103 nM | TGI [20]: 345 nM | GI50 [21]: 41.8 nM | TGI [21]: 153 nM | GI50 [22]: 181 nM | TGI [22]: 379 nM | GI50 [23]: 131 nM | TGI [23]: 468 nM | GI50 [24]: 51.3 nM | TGI [24]: 173 nM | GI50 [25]: 102 nM | TGI [25]: 353 nM | GI50 [26]: 59.9 nM | TGI [26]: 262 nM | GI50 [27]: 10.3 nM | TGI [27]: 22.8 nM | GI50 [28]: 73.6 nM | TGI [28]: 445 nM | GI50 [29]: < 10 nM | TGI [29]: < 10 nM | GI50 [30]: 417 nM | TGI [30]: 1560 nM | GI50 [31]: 707 nM | TGI [31]: 2090 nM | GI50 [32]: 343 nM | TGI [32]: 2010 nM | GI50 [33]: 88.4 nM | TGI [33]: 270 nM | GI50 [34]: 114 nM | TGI [34]: 272 nM | GI50 [35]: 119 nM | TGI [35]: 250 nM | GI50 [36]: 46.7 nM | TGI [36]: 1010 nM | GI50 [37]: 76.1 nM | TGI [37]: 334 nM | GI50 [38]: < 10 nM | TGI [38]: < 10 nM | GI50 [39]: 42.8 nM | TGI [39]: 281 nM | GI50 [40]: 48.7 nM | TGI [40]: 185 nM | GI50 [41]: 41.7 nM | TGI [41]: 147 nM | GI50 [42]: 90.9 nM | TGI [42]: 668 nM | GI50 [43]: 220 nM | TGI [43]: 953 nM | GI50 [44]: 455 nM | TGI [44]: 1820 nM | GI50 [45]: 66 nM | TGI [45]: 206 nM | GI50 [46]: < 10 nM | TGI [46]: < 10 nM | GI50 [47]: 179 nM | TGI [47]: 583 nM | GI50 [48]: 7530 nM | TGI [48]: 25400 nM | GI50 [49]: 36.6 nM | TGI [49]: 119 nM | GI50 [50]: 86.9 nM | TGI [50]: 244 nM | GI50 [51]: 224 nM | TGI [51]: 1330 nM | GI50 [52]: 124 nM | TGI [52]: 318 nM | GI50 [53]: 144 nM | TGI [53]: 338 nM | GI50 [54]: 50.9 nM | TGI [54]: 187 nM | GI50 [55]: 28.2 nM | TGI [55]: 126 nM | GI50 [56]: 62.9 nM | TGI [56]: 278 nM | GI50 [57]: 637 nM | TGI [57]: 2080 nM
